Results published in publication PMC9743128, “Phenotype-based screening rediscovered benzopyran-embedded microtubule inhibitors as anti-neuroinflammatory agents by modulating the tubulin–p65 interaction” (Experimental & Molecular Medicine, 2022).

Tests used:
[1] = tested on: α-tubulin monomers in RAW264.7 cells; test: Tubulin monomer/polymer isolation and western blot; format: cell-based, murine; conditions: 10 μM for 6 h
J774A.1 cells = test: Flow cytometry cell cycle analysis (PI staining); format: cell-based, murine
Protocol: NF-κB SEAP reporter HEK293T cell (Invivogen; hkb-mmcl) were seeded 10,000 cells/well at white 96-well plate (Falcon; 353296). HEK293 cells were transfected with a 1 to 1 ratio of 3xAP1pGL3 (Addgene; #40342) and pRL-TK (Promega; E2241) mixture using LTX plus (Invitrogen; 15338100) and opti-MEM (Gibco; 31985070) according to the manufacturer's protocol. After 24-h compound treatment or the overexpression of α-tubulin or GFP, 40 μl of the medium was transferred to a 96-well plate and mixed with 180 μl of quanti-blue solution (Invitrogen; rep-qbs) for the measurement of NF-κB activation. We measured the absorbance at 655 nm after 2-h incubation at 37 °C. To measure the AP-1 activation, cells were washed with PBS and lysed with 20 μl of 1× passive lysis buffer for 15 min. Luciferase signals were measured by dual-luciferase reporter assay system (Progema; E1980) using a microplate reader (BioTek; Synergy HTX). Expression levels of SEAP and AP-1 were normalized by renilla luciferase signal.
J774A.1 cells were treated with each compound for the designated time and dose. The cells were trypsinized and re-suspended in PBS containing 2% FBS (Gibco; #16000-044). To measure cell cycle arrest, the same number of the re-suspended cells was stained with propidium iodide (PI) (Abcam; ab14085) according to the manufacturer’s protocol. […]

C57BL/6 mice = test: LPS neuroinflammation model; format: in vivo; conditions: 2 or 5 mg/kg IP daily for 4 days, LPS 5 mg/kg on Day 2
Protocol: All experiments were carried out with 10-week-old female C57BL/6 mice (20–25 g). The animals were divided into six experimental groups of three mice in each experiment: Group 1, treated with vehicle; Group 2, treated with SB26019 {2 mg/kg body weight (mpk)}; Group 3, treated with SB26019 (5 mpk); Group 4, treated with LPS and vehicle; Group 5, treated with LPS and SB26019 (2 mpk); and Group 6, treated with LPS and SB26019 (5 mpk). SB26019 (2 or 5 mpk) or vehicle {distilled water containing 5% DMSO and 40% polyethylene glycol 400 (TCI; N0433)} was administered with IP injection daily for 4 days. Five mpk of LPS (Sigma; L2880) in PBS was administered by IP injection on Day 2 for a single challenge. All mice were sacrificed on Day 5.
Mice were anesthetized with a mixture of alfaxalone and xylazine (5:1 ratio) and transcardially perfused with cold PBS. Mouse brains were harvested and fixed using 10% NBF (Sigma; HT501128) for 2 h. After washing with PBS for 30 min three times, fixed brains were embedded in OCT compound (Leica; #3801480) for frozen coronal sectioning at a thickness of 7 μm. […]
The perfused brains were minced with a 10 T scalpel blade. […] Microglia in the interphase between 70% and 37% Percoll solution was transferred and washed with HBSS media. mRNA was extracted from the microglia and analyzed with qPCR. […]

[2] = Cell viability assay (EZ-Cytox); conditions: mouse, BV-2 microglial cells
BV-2 cells = test: Cell viability assay (EZ-Cytox); conditions: BV-2, various time points

Cell cycle arrest (J774A.1 cells): no cell cycle arrest
Compound: COc1ccc2c(c1O)OC(C)(C)C=C2c1cccc2c1oc1ccccc12 [Compound 8]
Total α-tubulin monomers [1]: increased the total α-tubulin monomers | Microglial activation (Iba-1-positive region of the brain) (C57BL/6 mice): efficiently regulated microglial activation in all brain regions in a dose-dependent manner | Transcription levels of cytokines and chemokines in brain microglia (qPCR) (C57BL/6 mice): efficiently inhibited the LPS-mediated upregulation of cytokines and chemokines | viability at 10 µM [2]: 108% | Cytotoxicity (cell viability curve) (BV-2 cells): without considerable cytotoxicity
